Each structure is given as a SMILES string.

For one assay, the system named is myelofibrosis. The conditions noted are these: ruxolitinib monotherapy in clinical trials; cited from earlier work.
In a further assay the test system is SET-2 cells. In words: SET-2 xenograft model. The conditions noted are these: for tumor growth inhibition: Compound 1 10 mg/kg QD, or both, oral.
The test system of assay [1] is MPLW515L expressing bone marrow. In words: MPLW515L mouse model of MPN. The conditions noted are these: Compound 1 10 mg/kg QD, ruxolitinib 60 mg/kg BID, or both; oral, 14 days.

For `N#CC[C@H](C1CCCC1)n1cc(-c2ncnc3[nH]ccc23)cn1` [ruxolitinib, (3R)-3-cyclopentyl-3-[4-(7H-pyrrolo[2,3-d]pyrimidin-4-yl)-1H-pyrazol-1-yl]propanenitrile], in the assay on myelofibrosis, the “reduction in spleen size” value is “about 35%”. Further, the tumor growth inhibition entry in the assay on SET-2 cells (ruxolitinib 30 mg/kg BID, 14 days) is “significantly inhibited tumor growth”; in the assay with SET-2 cells (ruxolitinib 60 mg/kg BID, 11 days) it was “significant tumor growth inhibition”. The “Fa (tumor growth inhibition level), SET-2” value in the assay on SET-2 cells (table head: ruxolitinib 60 mg/kg BID, Compound 1 10 mg/kg QD, combination) is recorded as 0.44. Also, in assay [1], the spleen size entry is listed as “able to reduce spleen size”. The “white blood cell count” value in assay [1] is reported as “more profound effect on white blood cell count reduction than Compound 1”.

The record behind these values is patent US12440495B2, “Combination therapy for treatment of myeloproliferative neoplasms” (Incyte Corporation, priority 2020, dated 2025).
